The values that follow come from paper PMC9416004, “A Versatile Class of 1,4,4-Trisubstituted Piperidines Block Coronavirus Replication In Vitro” (Pharmaceuticals, 2022).

A short description of one series: in vitro. To be noted: human.
The next series deals with HCoV-229E. Nature of the series: Cytopathic effect (CPE) reduction assay with HCoV-229E in HEL cells. Format: cell-based, human coronavirus 229E. To be noted: for EC50: Human coronavirus 229E, 120 h, HCoV-229E-infected HEL cells, five days at 35 °C; for Selectivity Index MTS: ratio of CC50 to EC50-MTS; for Selectivity Index MTS / Selectivity Index Microscopy: only values of 10 or higher shown; for Selectivity Index Microscopy: ratio of MCC to EC50-microscopy. On the technique in general: Protection from cytopathic effect is a common read-out in antiviral testing.

For series [1], the system named is human embryonic lung (HEL) fibroblast cells. To be noted: mock-infected HEL cells; microscopically visible alterations in cell morphology.
[2] abbreviates: protection against virus-induced CPE by MTS cell viability assay, read-out: Antiviral EC50 MTS.
Where [3] appears, read: protection against virus-induced CPE by microscopic scoring, read-out: Antiviral EC50 Microscopy.

Where two headings read alike, the source gives them in different places.

`COC(=O)C[C@H](NC(=O)OC(C)(C)C)C(=O)N(Cc1ccc(F)cc1)C1(C(=O)NCc2ccccc2)CCN(Cc2ccccc2)CC1` [Compound 2]: in the series “in vitro”, the CC50 stood at 44 ± 8 µM. In the series with HCoV-229E (setting [2]), the EC50 worked out at 7.4 ± 2.5 µM. In addition, the EC50 in the series with HCoV-229E (setting [3]) stood at 7.8 ± 2.7 µM. Moreover, in the series on HCoV-229E, the “Selectivity Index MTS” value is 6 and the “Selectivity Index Microscopy” value was found to be 13. In addition, in series [1], the “Cytotoxicity MCC (minimal cytotoxic concentration)” value (shortened to “Cytotoxicity MCC”) is 100 µM.
Turning to `COC(=O)C[C@H](NC(=O)OC(C)(C)C)C(=O)N(Cc1ccc(F)cc1)C(C)(C)C(=O)NCc1ccccc1` [Compound 3], the CC50 in “in vitro” is greater than 100 µM. For the same compound, the concentration giving a half-maximal response (EC50) in the series on HCoV-229E (setting [2]) and with HCoV-229E (setting [3]) was greater than 100 µM throughout. For the same compound, the “Cytotoxicity MCC” value in series [1] was greater than 100 µM.
Regarding `COC(=O)C[C@H](NC(=O)OC(C)(C)C)C(=O)N(Cc1ccc(F)cc1)C1(C(=O)NCc2ccccc2)CCNCC1` [Compound 4], the CC50 in the series “in vitro” is 66 ± 7 µM. The EC50 in the series on HCoV-229E (setting [2]) is 78 ± 14 µM; in the series with HCoV-229E (setting [3]) it was 50 ± 18 µM. Also, the “Cytotoxicity MCC” value in series [1] is 100 µM.
In turn, `COC(=O)C[C@H](NC(=O)OC(C)(C)C)C(=O)N(Cc1ccc(F)cc1)C1(C(=O)NCc2ccccc2)CCN(C)CC1` [Compound 5] came in with a CC50 in “in vitro” of 92 ± 4 µM. In addition, the EC50 with HCoV-229E (setting [2]) is 22 ± 7 µM; with HCoV-229E (setting [3]), 22 ± 9 µM. Also, the “Cytotoxicity MCC” value in series [1] was greater than 100 µM.
In the same order, the values of `COC(=O)C[C@H](NC(=O)OC(C)(C)C)C(=O)N(Cc1ccc(F)cc1)C1(C(=O)NCc2ccccc2)CCN(C2CCCCC2)CC1` [Compound 6] are 85 ± 9 µM, 14 ± 1 µM, 22 ± 9 µM and 100 µM.
In turn, `COC(=O)C[C@H](NC(=O)OC(C)(C)C)C(=O)N(Cc1ccc(F)cc1)C1(C(=O)NCc2ccccc2)CCN(c2ccccc2)CC1` [Compound 7] came in with a CC50 in “in vitro” greater than 100 µM. Besides, the EC50 in the series with HCoV-229E (setting [2]) was greater than 100 µM; in the series on HCoV-229E (setting [3]) it was 43 ± 3 µM. For the same compound, the “Cytotoxicity MCC” value in series [1] was greater than 100 µM.
As to `COC(=O)C[C@H](NC(=O)OC(C)(C)C)C(=O)N(Cc1ccc(F)cc1)C1(C(=O)NCc2ccccc2)CC[N+](C)(Cc2ccccc2)CC1` (stereo partly shown) [Compound 8], the CC50 in “in vitro” is greater than 100 µM. The EC50 with HCoV-229E (setting [2]) and in the series on HCoV-229E (setting [3]) was greater than 100 µM in each case. Besides, in series [1], the “Cytotoxicity MCC” value was greater than 100 µM.
In turn, `COC(=O)C[C@H](NC(=O)OC(C)(C)C)C(=O)N(Cc1ccc(F)cc1)C1(C(=O)NCc2ccccc2)CCN(Cc2cccc(F)c2)CC1` [Compound 9] displayed a CC50 in “in vitro” greater than 100 µM. In addition, the EC50 in the series with HCoV-229E (setting [2]) and in the series on HCoV-229E (setting [3]) was greater than 100 µM each time. Further, the “Cytotoxicity MCC” value in series [1] is greater than 100 µM.
As for `COC(=O)C[C@H](NC(=O)OC(C)(C)C)C(=O)N(Cc1ccc(F)cc1)C1(C(=O)NCc2ccccc2)CCN(Cc2cc(F)cc(F)c2)CC1` [Compound 10], the CC50 in “in vitro” was 10 ± 2 µM. For the same compound, the EC50 in the series on HCoV-229E (setting [2]) was greater than 100 µM; with HCoV-229E (setting [3]), 15 ± 1 µM. Moreover, the “Cytotoxicity MCC” value in series [1] is 70 µM.
Compound `COC(=O)C[C@H](NC(=O)OC(C)(C)C)C(=O)N(Cc1ccc(F)cc1)C1(C(=O)NCc2ccccc2)CCN(CCc2ccccc2)CC1` [Compound 11] yielded a CC50 in the series “in vitro” of 38 ± 2 µM. Moreover, the EC50 was 4.4 ± 0.8 µM in the series on HCoV-229E (setting [2]) and 3.2 ± 0.1 µM in the series on HCoV-229E (setting [3]). Moreover, in the series with HCoV-229E, the “Selectivity Index Microscopy” value is given as 31. Further, the “Cytotoxicity MCC” value in series [1] amounted to 100 µM.
Compound `COC(=O)C[C@H](NC(=O)OC(C)(C)C)C(=O)N(Cc1ccc(F)cc1)C1(C(=O)NC(C)(C)C)CCN(Cc2ccccc2)CC1` [Compound 12] came in with a CC50 in the series “in vitro” of 77 µM. Besides, the EC50 with HCoV-229E (setting [2]) and in the series on HCoV-229E (setting [3]) was 11 µM throughout. In series [1], the “Cytotoxicity MCC” value was no less than 100 µM.
Take `COC(=O)C[C@H](NC(=O)OC(C)(C)C)C(=O)N(Cc1ccc(F)cc1)C1(C(=O)NC2CCCCC2)CCN(Cc2ccccc2)CC1` [Compound 13]: the CC50 in the series “in vitro” was greater than 100 µM. Also, the EC50 with HCoV-229E (setting [2]) and in the series on HCoV-229E (setting [3]) was greater than 100 µM each time. In addition, in series [1], the “Cytotoxicity MCC” value is recorded as greater than 100 µM.
For the compound `COC(=O)C[C@H](NC(=O)OC(C)(C)C)C(=O)N(Cc1ccc(F)cc1)C1(C(=O)NCS(=O)(=O)c2ccc(C)cc2)CCN(Cc2ccccc2)CC1` [Compound 14], the CC50 in “in vitro” turned out to be 78 ± 11 µM. In addition, the figures for the EC50 in the series on HCoV-229E (setting [2]) and with HCoV-229E (setting [3]) were 30 ± 6 µM and 57 ± 18 µM, respectively. In series [1], the “Cytotoxicity MCC” value was 100 µM.
On the same counts, the results for `COC(=O)C[C@H](NC(=O)OC(C)(C)C)C(=O)N(Cc1ccccc1)C1(C(=O)NC(C)(C)C)CCN(Cc2ccccc2)CC1` [Compound 15, Methyl(S)-4-(benzyl(1-benzyl-4-tert-butylcarbamoylpiperidin-4-yl)amino)-3-tert-butoxycarbonylamino-4-oxobutanoate] are 78 ± 7 µM, 25 µM, 25 µM and greater than 100 µM.
`COC(=O)C[C@H](NC(=O)OC(C)(C)C)C(=O)N(Cc1ccccc1)C1(C(=O)NC2CCCCC2)CCN(Cc2ccccc2)CC1` [Compound 16, Methyl(S)-4-(benzyl(1-benzyl-4-cyclohexylcarbamoylpiperidin-4-yl)amino)-3-tert-butoxycarbonylamino-4-oxobutanoate] had a CC50 in “in vitro” of 42 ± 4 µM. The figures for the EC50 in the series with HCoV-229E (setting [2]) and in the series on HCoV-229E (setting [3]) were 10 µM and 16 ± 3 µM, respectively. Further, the “Cytotoxicity MCC” value in series [1] is no less than 40 µM.
In the same order, the values of `COC(=O)CNC(=O)C1(N(Cc2ccccc2)C(=O)[C@H](CC(=O)OC)NC(=O)OC(C)(C)C)CCN(Cc2ccccc2)CC1` [Compound 17] are greater than 100 µM, 75 ± 8 µM, 68 ± 3 µM and greater than 100 µM.
In the same order, the values of `COC(=O)C[C@H](NC(=O)OC(C)(C)C)C(=O)NC1(C(=O)NCc2ccccc2)CCN(Cc2ccccc2)CC1` [Compound 18] are 48 ± 8 µM, greater than 100 µM, 55 ± 16 µM and no less than 100 µM.
Consider `COC(=O)C[C@H](NC(=O)OC(C)(C)C)C(=O)N(C)C1(C(=O)NCc2ccccc2)CCN(Cc2ccccc2)CC1` [Compound 19], for which the CC50 in “in vitro” came out at 18 ± 2 µM. The values for the EC50 in the series on HCoV-229E (setting [2]) and in the series with HCoV-229E (setting [3]) were greater than 100 µM and 14 ± 1 µM, respectively. In addition, in series [1], the “Cytotoxicity MCC” value is recorded as 100 µM.
On the same counts, the results for `CCC(C)N(C(=O)[C@H](CC(=O)OC)NC(=O)OC(C)(C)C)C1(C(=O)NCc2ccccc2)CCN(Cc2ccccc2)CC1` (stereo partly shown) [Compound 20] are 31 ± 3 µM, 13 ± 1 µM, 14 ± 1 µM and 100 µM.
With `COC(=O)C[C@H](NC(=O)OC(C)(C)C)C(=O)N(C1CC1)C1(C(=O)NCc2ccccc2)CCN(Cc2ccccc2)CC1` [Compound 21], the CC50 in the series “in vitro” came out at 14 ± 3 µM. Moreover, the EC50 in the series with HCoV-229E (setting [2]) is greater than 100 µM; with HCoV-229E (setting [3]), 12 ± 0.4 µM. Besides, the “Cytotoxicity MCC” value in series [1] was determined as 50 µM.
The compound `COC(=O)C[C@H](NC(=O)OC(C)(C)C)C(=O)N(Cc1ccc(C)cc1)C1(C(=O)NCc2ccccc2)CCN(Cc2ccccc2)CC1` [Compound 22] had a CC50 in “in vitro” of 31 ± 10 µM. In addition, the concentration giving a half-maximal response (EC50) in the series with HCoV-229E (setting [2]) was found to be 4.3 ± 0.6 µM; in the series with HCoV-229E (setting [3]) it was 3.1 µM. Besides, in the series on HCoV-229E, the “Selectivity Index Microscopy” value is 24. In addition, in series [1], the “Cytotoxicity MCC” value was 75 µM.
In the case of `COC(=O)C[C@H](NC(=O)OC(C)(C)C)C(=O)N(Cc1ccc([N+](=O)[O-])cc1)C1(C(=O)NCc2ccccc2)CCN(Cc2ccccc2)CC1` [Compound 23], the CC50 in “in vitro” came to 49 ± 6 µM. For the same compound, the EC50 with HCoV-229E (setting [2]) stood at 4 ± 0.6 µM. In the series on HCoV-229E (setting [3]), the EC50 turned out to be 3.1 µM. In addition, in the series with HCoV-229E, the “Selectivity Index MTS” value was determined as 12 and the “Selectivity Index Microscopy” value is 24. Moreover, the “Cytotoxicity MCC” value in series [1] is recorded as 75 µM.
`COC(=O)C[C@H](NC(=O)OC(C)(C)C)C(=O)N(Cc1ccc(C(F)(F)F)cc1)C1(C(=O)NCc2ccccc2)CCN(Cc2ccccc2)CC1` [Compound 24] gave a CC50 in “in vitro” of 11 ± 1 µM. Besides, the EC50 with HCoV-229E (setting [2]) came out at 4.2 ± 1 µM; in the series with HCoV-229E (setting [3]) it was 3.1 µM. In addition, the “Cytotoxicity MCC” value in series [1] was determined as 25 µM.
Consider `COC(=O)C[C@H](NC(=O)OC(C)(C)C)C(=O)N(Cc1ccc(Cl)cc1)C1(C(=O)NCc2ccccc2)CCN(Cc2ccccc2)CC1` [Compound 25], for which the CC50 in “in vitro” came out at 12 µM. For the same compound, the half-maximal effective concentration (EC50) in the series with HCoV-229E (setting [2]) was 3.2 ± 0.2 µM; with HCoV-229E (setting [3]) it was 3.1 µM. Besides, the “Cytotoxicity MCC” value in series [1] is recorded as 50 µM.
On the same counts, the results for `COC(=O)C[C@H](NC(=O)OC(C)(C)C)C(=O)N(Cc1ccccc1F)C1(C(=O)NCc2ccccc2)CCN(Cc2ccccc2)CC1` [Compound 26] are 44 ± 1 µM, 15 ± 2 µM, 12 ± 1 µM and 100 µM.
`COC(=O)C[C@H](NC(=O)OC(C)(C)C)C(=O)N(Cc1cccc(F)c1)C1(C(=O)NCc2ccccc2)CCN(Cc2ccccc2)CC1` [Compound 27]: the CC50 in the series “in vitro” worked out at 46 ± 4 µM. Moreover, the EC50 is 14 ± 1 µM with HCoV-229E (setting [2]) and 10 ± 3 µM in the series with HCoV-229E (setting [3]). Also, the “Selectivity Index Microscopy” value in the series on HCoV-229E came out at 10. Besides, the “Cytotoxicity MCC” value in series [1] is on record as 100 µM.
For the compound `COC(=O)C[C@H](NC(=O)OC(C)(C)C)C(=O)N(Cc1ccc(F)c(F)c1)C1(C(=O)NCc2ccccc2)CCN(Cc2ccccc2)CC1` [Compound 28], the CC50 in “in vitro” came to 23 ± 11 µM. For the same compound, the figures for the EC50 in the series with HCoV-229E (setting [2]) and in the series with HCoV-229E (setting [3]) were 3.7 ± 1 µM and 6 ± 2.6 µM, respectively. For the same compound, in series [1], the “Cytotoxicity MCC” value is reported as 44 µM.

Broadly, the EC50 is the concentration at which the effect is half-maximal.
